Read-outs that look alike come from different tables or passages of the source. One block for each molecule: values may come before it.
Tests used:
[1] = biological target: T1, MCR-1 (Homo sapiens, UniProt Q01726); experiment: Melanocortin receptor binding assay, competition with 125I-HP 467, HEK 293 cells expressing hMCR-1; conditions: for IC50: read-out: MC-1 IC50; for % Disp. MC-1 10 μM: displacement of 125I-HP 467 at 10 μM isoquinoline compound
T1 construct: expressed in transfected cells; host or cells: HEK 293
How it was run: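 Test compounds compete on intact HEK 293 cells carrying hMCR-1 (2×10^4 per tube) or hMCR-4 (4×10^3 per tube), suspended in PBS, 10% calf serum, 1 mM CaCl2.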

[2] = biological target: T2, MCR-4 (Homo sapiens, UniProt P32245); experiment: Melanocortin receptor binding assay, competition with 125I-HP 467, HEK 293 cells expressing hMCR-4; conditions: for IC50: read-out: MC-4 IC50
T2 construct: expressed in transfected cells; host or cells: HEK 293
Protocol: All cell culture media and reagents were obtained from GibcoBRL (Gaithersburg Md.), except for COSMIC CALF SERUM (HyClone; Logan Utah).
Cells were suspended in PBS, 10% COSMIC CALF SERUM and 1 mM CaCl2. Cell suspensions were prepared at a density of 2×10^4 cells/ml for HEK 293 cells expressing hMCR-3, hMCR-4 or hMCR-5, and 1×10^5 cells/ml for HEK 293 cells expressing hMCR-1. Suspensions were placed in a water bath and allowed to warm to 37° C. for 1 hr.
Binding assays were performed in a total volume of 250 μl for HEK 293 cells. […] To each tube was added 4×10^3 HEK 293 cells expressing hMCR-3, hMCR-4 or hMCR-5, or 2×10^4 cells expressing hMCR-1. Assays were incubated for 2.5 hr at 37° C.
GF/B filter plates were prepared by soaking for at least one hour in 5 mg/ml BSA and 10 mM CaCl2. Assays were filtered using a Brandel 96-well cell harvester (Brandel Inc.; Gaithersburg, Md.). The filters were washed four times with cold 50 mM Tris, pH 7.4, the filter plates were dehydrated for 2 hr and 35 μl of MICROSCINT was added to each well. Filter plates were counted using a Packard Topcount (Packard Instrument Co.) and data analyzed using GraphPad PRISM v2.0 (GraphPad Software Inc.; San Diego Calif.) and Microsoft EXCEL v5.0a (Microsoft Corp.; Redmond Wash.).
To assay isoquinoline compounds, binding assays were performed in duplicate in a 96 well format. […] A 0.2 ml aliquot of suspended cells was added to each well to give the cell numbers indicate above, and the cells were incubated at 37° C. for 2.5 hr. Cells were harvested on GF/B filter plates as described above and counted.

[3] = competition with 125I-HP 467, HEK 293 cells expressing MCR-1
[4] = competition with 125I-HP 467, HEK 293 cells expressing MCR-4
[5] = inhibition of binding of 125I-HP 467, HEK 293 cells expressing MCR-1
[6] = inhibition of binding of 125I-HP 467, HEK 293 cells expressing MCR-4
[7] = inhibition of binding of 125I-HP 467, HEK 293 cells expressing MCR-1, TRG 2414 library
[8] = inhibition of binding of 125I-HP 467, HEK 293 cells expressing MCR-4, TRG 2414 library
[9] = TRG 2414 library, inhibition of binding of 125I-HP 467, HEK 293 cells expressing MCR-1
[10] = TRG 2414 library, inhibition of binding of 125I-HP 467, HEK 293 cells expressing MCR-4
[11] = TRG 2406 and TRG 2407 libraries, inhibition of binding of 125I-HP 467
[12] = TRG 2408 and TRG 2409 libraries, inhibition of 125I-HP 467 binding

T2 sequence (P32245 whole entry): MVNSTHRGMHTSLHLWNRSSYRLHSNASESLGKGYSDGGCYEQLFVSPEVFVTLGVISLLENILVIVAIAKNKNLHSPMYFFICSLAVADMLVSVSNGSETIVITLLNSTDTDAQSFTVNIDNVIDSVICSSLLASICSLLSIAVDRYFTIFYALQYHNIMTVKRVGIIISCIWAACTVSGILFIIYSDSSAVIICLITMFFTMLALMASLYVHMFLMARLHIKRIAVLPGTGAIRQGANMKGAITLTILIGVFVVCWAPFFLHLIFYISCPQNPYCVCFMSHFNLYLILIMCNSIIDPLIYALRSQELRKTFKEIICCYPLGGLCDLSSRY
T1 sequence (Q01726 whole entry): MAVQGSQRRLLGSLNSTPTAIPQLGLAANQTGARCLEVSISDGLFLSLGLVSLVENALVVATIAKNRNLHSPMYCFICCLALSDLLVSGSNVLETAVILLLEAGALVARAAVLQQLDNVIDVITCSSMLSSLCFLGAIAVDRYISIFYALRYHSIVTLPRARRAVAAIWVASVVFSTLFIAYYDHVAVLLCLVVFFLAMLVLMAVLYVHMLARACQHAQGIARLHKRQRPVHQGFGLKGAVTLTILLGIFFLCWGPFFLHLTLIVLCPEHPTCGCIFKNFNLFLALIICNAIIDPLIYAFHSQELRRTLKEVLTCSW

IC50 [1, 3]: 820 nM | IC50 [2, 4]: 1430 nM
SMILES: CCNC(CN)CCCN1Cc2ccccc2C(CNCCc2ccccc2)C1c1ccc(-c2ccccc2)cc1 (centres unmarked) [TRG 2411-115]

IC50 [1, 5]: 220 nM | IC50 [2, 6]: 440 nM
SMILES: CCNc1ccc(C2C(CNC3CCCCC3)c3ccccc3CN2CCCC(CN)NCc2ccccc2)cc1 (centres unmarked) [TRG 2411-169]

IC50 [1, 7]: 6410 nM | IC50 [2, 8]: 6930 nM
SMILES: NC[C@H](CCCCN1Cc2ccccc2C(CNCCc2cccc(Cl)c2)C1c1ccc(Cl)cc1Cl)NCc1ccccc1 (some centres unmarked) [TRG 2414-15]

IC50 [1, 9]: 869 nM | IC50 [2, 10]: 2310 nM
SMILES: CCCOc1ccc(C2C(CNCc3ccccc3)c3ccccc3CN2CCCCC(N)CN)cc1 (centres unmarked) [Cmpd 189]

SMILES: CCNc1ccc(C2C(CNCCc3ccccc3)c3ccccc3CN2CCCC(CN)NCc2ccccc2CNCc2ccccc2)cc1 (centres unmarked) [TRG 2420-14]
IC50 [1, 5]: 135 nM | IC50 [2, 6]: 290 nM

IC50 [1, 11]: 10800 nM | IC50 [2, 11]: 3300 nM
SMILES: CCn1c2ccccc2c2cc(C3C(CNCc4ccccc4O)c4ccccc4CN3CCN)ccc21 (centres unmarked) [TRG 2406-20]

SMILES: CCNc1ccc(C2C(CNCCc3ccccc3)c3ccccc3CN2CCCC(CN)NCc2ccccc2CNCCc2ccccc2)cc1 (centres unmarked) [TRG 2420-16]
IC50 [1, 5]: 164 nM | IC50 [2, 6]: 1200 nM

IC50 [1, 5]: 4800 nM | IC50 [2, 6]: 2130 nM
SMILES: CCc1ccc(C2C(CO)c3ccccc3CN2CCCC(CN)NCCC2CCCCC2)cc1 (centres unmarked) [TRG 2415-7]

IC50 [1, 11]: 1790 nM | IC50 [2, 11]: 800 nM
SMILES: CNC(CN)CCCCN1Cc2ccccc2C(CNCCc2cccc(Cl)c2)C1c1ccc(Cl)cc1Cl (mixture of isomers) [TRG 2407-24]

IC50 [1, 7]: 9450 nM | IC50 [2, 8]: 640 nM
SMILES: NCC(N)CCCCN1Cc2ccccc2C(CNCc2ccccc2)C1c1cc(C(F)(F)F)cc(C(F)(F)F)c1 (centres unmarked) [TRG 2414-69]

MC-1 IC50 [1, 9]: no fit | MC-4 IC50 [2, 10]: no fit
SMILES: COc1ccc(CNCC2c3ccccc3CN(CCCCC(N)CN)C2c2ccc(Cl)cc2Cl)cc1 (centres unmarked) [Cmpd 247]

IC50 [1, 5]: 90 nM | IC50 [2, 6]: 1480 nM
SMILES: CCCCCNc1ccc(C2C(CNCCc3ccccc3)c3ccccc3CN2CCCC(CN)NC)cc1 (centres unmarked) [TRG 2412-16]

IC50 [1, 7]: 2180 nM | IC50 [2, 8]: 8130 nM
SMILES: CCCOc1ccc(C2C(CNCc3cccc(OC)c3)c3ccccc3CN2CCCCC(CN)NCCc2ccccc2)cc1 (centres unmarked) [TRG 2414-178]

IC50 [1, 3]: 300 nM | IC50 [2, 4]: 1330 nM
SMILES: CNC(CNC(CN)CCCCN1Cc2ccccc2C(CN)C1c1ccc(-c2ccccc2)cc1)Cc1ccccc1 (centres unmarked) [TRG 2411-30]

IC50 [1, 3]: 1460 nM | IC50 [2, 4]: 1590 nM
SMILES: CCCCNC(CN)CCCN1Cc2ccccc2C(CNC2CCCCC2)C1c1ccc(-c2ccccc2)cc1 (centres unmarked) [TRG 2411-133]

IC50 [1, 7]: 2030 nM | IC50 [2, 8]: 8940 nM
SMILES: NCC(CCCCN1Cc2ccccc2C(CNC2CCCCCC2)C1c1ccc(Oc2ccccc2)cc1)NCc1ccccc1 (centres unmarked) [TRG 2414-155]

IC50 [1, 7]: 992 nM | IC50 [2, 8]: 1300 nM
SMILES: NCC(N)CCCCN1Cc2ccccc2C(CNC2CCCCC2)C1c1ccc(Cl)cc1Cl (mixture of isomers) [TRG 2414-37]

IC50 ([1]; TRG 2405 section, inhibition of binding of 125I-HP 467, HEK 293 cells expressing MCR-1): 5160 nM | % Disp. MC-1 10 μM ([1]; first of duplicate): 65.2% | % Disp. MC-1 10 μM ([1]; second of duplicate): 63% | IC50 ([2]; TRG 2405 section, inhibition of binding of 125I-HP 467, HEK 293 cells expressing MCR-4): 3100 nM
SMILES: CNC(CN)CN1Cc2ccccc2C(CNC2CCCCC2)C1c1cccc(Oc2ccc(OC)cc2)c1 (centres unmarked) [TRG 2405-124]

IC50 [1, 11]: 1030 nM | IC50 [2, 11]: 360 nM
SMILES: CNC(CN)CCCCN1Cc2ccccc2C(CNCCc2ccccc2)C1c1ccc(Cl)cc1Cl (centres unmarked) [TRG 2407-21]

IC50 [1, 12]: 2430 nM | IC50 [2, 12]: 8280 nM
SMILES: CN[C@@H](CN)CCCCN1Cc2ccccc2C(CNC2CCCCC2)C1c1ccc(Cl)cc1Cl (some centres unmarked) [TRG 2408-40]

IC50 [1, 7]: 7740 nM | IC50 [2, 8]: 13100 nM
SMILES: NCC(CCCCN1Cc2ccccc2C(CNCc2ccccc2)C1c1cccc(Oc2ccccc2)c1)NCc1ccccc1 (centres unmarked) [TRG 2414-111]
